Read-outs that look alike come from different tables or passages of the source.
Molecular target: T1, Full-length (FL)-PRMT5-MEP50 enzyme complex (Homo sapiens, UniProt O14744)
T1 construct: Full-length (FL)-PRMT5-MEP50 enzyme complex (recombinant proteins from baculovirus-transfected Sf21 cells: FL-PRMT5; MW=73837 kDa and FL-MEP50; MW=38614); made in house; host or cells: baculovirus-transfected Sf21 insect cells
Experiment: PRMT5-MEP50 Enzyme Methylation Assay
Assay type: biochemical
Conditions: 1.0 nM PRMT5-MEP50, 75 nM biotinylated peptide, 15 μM SAM
Method in brief: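 Compound was pre-incubated 60 min at 37°C with 1.0 nM enzyme and 15 μM SAM (final) in 50 mM Bicine pH 8.0, then 75 nM biotinylated H4R3(Me1) peptide was added and reacted 150 min; twenty-point 1:2 titration from 100000 nM, 1% DMSO. Formic acid quench; SAMDI mass spectrometry measured Me1-to-Me2 conversion, EC50 by 4- or 7-parameter regression.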

[1] = one EC50: 4 parameters single site sigmoidal model, EC50 1: first value of 7 parameters biphasic model, read-out: Enzyme Methylation Assay (EC50 or EC50 1)
[2] = second EC50 of 7 parameters biphasic model, read-out: Enzyme Methylation Assay (EC50 2)

T1 sequence (O14744 whole entry): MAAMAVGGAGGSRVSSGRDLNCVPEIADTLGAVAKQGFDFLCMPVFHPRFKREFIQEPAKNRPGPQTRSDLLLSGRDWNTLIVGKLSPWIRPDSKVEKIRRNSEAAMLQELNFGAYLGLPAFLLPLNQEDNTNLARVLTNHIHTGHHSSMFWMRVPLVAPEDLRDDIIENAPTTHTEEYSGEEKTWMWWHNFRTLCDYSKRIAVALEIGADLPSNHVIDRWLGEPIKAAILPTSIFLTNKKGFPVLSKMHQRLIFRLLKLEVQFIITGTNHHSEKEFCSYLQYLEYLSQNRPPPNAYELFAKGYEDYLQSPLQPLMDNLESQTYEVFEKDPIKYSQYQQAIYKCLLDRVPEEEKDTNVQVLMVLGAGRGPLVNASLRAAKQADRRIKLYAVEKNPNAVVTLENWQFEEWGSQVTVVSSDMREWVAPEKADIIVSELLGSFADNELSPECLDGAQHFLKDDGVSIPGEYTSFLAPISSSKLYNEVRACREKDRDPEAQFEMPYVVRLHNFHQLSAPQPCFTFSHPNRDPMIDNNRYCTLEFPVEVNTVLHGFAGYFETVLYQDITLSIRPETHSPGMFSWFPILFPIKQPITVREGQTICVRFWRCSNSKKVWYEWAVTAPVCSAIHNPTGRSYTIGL
T1 sequence (Q9BQA1 whole entry partner): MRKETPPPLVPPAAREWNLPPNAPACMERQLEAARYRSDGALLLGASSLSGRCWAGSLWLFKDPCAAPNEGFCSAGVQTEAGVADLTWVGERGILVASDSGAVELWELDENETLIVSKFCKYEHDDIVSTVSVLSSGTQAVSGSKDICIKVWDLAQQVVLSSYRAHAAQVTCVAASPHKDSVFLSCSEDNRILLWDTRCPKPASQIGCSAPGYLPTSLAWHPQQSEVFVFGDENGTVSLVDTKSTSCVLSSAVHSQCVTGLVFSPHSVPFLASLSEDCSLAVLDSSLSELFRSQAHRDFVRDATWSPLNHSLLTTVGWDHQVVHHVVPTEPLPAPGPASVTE

SMILES | EC50 [1] [nM] | EC50 [2] [nM]
CNc1ncnc2c1ccn2[C@@H]1O[C@@H]2[C@H](Cc3ccc4cc(F)c(N)nc4c3)CC[C@]2(O)[C@H]1O [Example 95, (2R,3R,3aS,6S,6aR)-6-((2-amino-3-fluoroquinolin-7-yl)methyl)-2-(4-(methylamino)-7H-pyrrolo[2,3-d]pyrimidin-7-yl)hexahydro-3aH-cyclopenta[b]furan-3,3a-diol] | 2.8 | –
CNc1ncnc2c1c(F)cn2[C@@H]1O[C@@H]2[C@H](Cc3ccc4cc(Br)c(N)nc4c3)CC[C@]2(O)[C@H]1O [Example 96, (2R,3R,3aS,6S,6aR)-6-((2-amino-3-bromoquinolin-7-yl)methyl)-2-(5-fluoro-4-(methylamino)-7H-pyrrolo[2,3-d]pyrimidin-7-yl)hexahydro-3aH-cyclopenta[b]furan-3,3a-diol] | 0.8 | –
C[C@@]1(O)[C@@H](CCc2ccc3cc(Br)c(N)nc3c2)C[C@@H](n2ccc3c(N)ncnc32)[C@@H]1O [Example 103, (1R,2S,3R,5S)-5-(2-(2-amino-3-bromoquinolin-7-yl)ethyl)-3-(4-amino-7H-pyrrolo[2,3-d]pyrimidin-7-yl)-1-methylcyclopentane-1,2-diol] | 0.4 | 40.7
Cc1cc2ccc(OC[C@H]3C[C@@H](n4ccc5c(C)ncnc54)[C@H](O)[C@]3(C)O)cc2nc1N [Example 106, (1R,2S,3R,5R)-5-(((2-amino-3-methylquinolin-7-yl)oxy)methyl)-1-methyl-3-(4-methyl-7H-pyrrolo[2,3-d]pyrimidin-7-yl)cyclopentane-1,2-diol] | 0.3 | –
Cc1ncnc2c1ccn2[C@@H]1O[C@@H]2[C@H](Cc3ccc4ccc(N)nc4c3)CC[C@]2(O)[C@H]1O [Example 107, (2R,3R,3aS,6S,6aR)-6-((2-aminoquinolin-7-yl)methyl)-2-(4-methyl-7H-pyrrolo[2,3-d]pyrimidin-7-yl)hexahydro-2H-cyclopenta[b]furan-3,3a-diol] | 0.2 | –
Nc1nc2cc(C[C@@H]3CC[C@@]4(O)[C@@H]3O[C@@H](n3cc(F)c5c(N)ncnc53)[C@@H]4O)ccc2cc1Br [Example 108, (2R,3R,3aS,6S,6aR)-6-((2-amino-3-bromoquinolin-7-yl)methyl)-2-(4-amino-5-fluoro-7H-pyrrolo[2,3-d]pyrimidin-7-yl)hexahydro-2H-cyclopenta[b]furan-3,3a-diol] | 0.2 | –
Cc1ncnc2c1ccn2[C@@H]1C[C@](C)(CCc2ccc3cc(Br)c(N)nc3c2)[C@@H](O)[C@H]1O [Example 109, (1S,2R,3S,5R)-3-(2-(2-amino-3-bromoquinolin-7-yl)ethyl)-3-methyl-5-(4-methyl-7H-pyrrolo[2,3-d]pyrimidin-7-yl)cyclopentane-1,2-diol] | 0.7 | –
Cc1ncnc2c1ccn2[C@@H]1C[C@](C)(CCc2ccc3cc4c(nc3c2)NCC4)[C@@H](O)[C@H]1O [Example 110, (1S,2R,3S,5R)-3-(2-(2,3-dihydro-1H-pyrrolo[2,3-b]quinolin-7-yl)ethyl)-3-methyl-5-(4-methyl-7H-pyrrolo[2,3-d]pyrimidin-7-yl)cyclopentane-1,2-diol] | 0.9 | –

The remaining compounds from weak to strong by EC50 [1], led by results:

EC50 [1] [nM] | EC50 [2] [nM] | SMILES
30.6 | 2660 | C[C@]1(COc2ccc3cc(Br)c(N)nc3c2)C[C@@H](n2ccc3c(N)ncnc32)[C@H](O)[C@]1(C)O [Example 111, (1R,2S,3R,5R)-5-(((2-amino-3-bromoquinolin-7-yl)oxy)methyl)-3-(4-amino-7H-pyrrolo[2,3-d]pyrimidin-7-yl)-1,5-dimethylcyclopentane-1,2-diol]
3.8 | – | Nc1ccc2ccc(O[C@H]3CC[C@@]4(O)[C@@H]3O[C@@H](n3ccc5c(N)ncnc53)[C@@H]4O)cc2n1 [Example 104, (2R,3R,3aS,6S,6aR)-2-(4-amino-7H-pyrrolo[2,3-d]pyrimidin-7-yl)-6-((2-aminoquinolin-7-yl)oxy)hexahydro-2H-cyclopenta[b]furan-3,3a-diol]
3.4 | 2570 | C[C@]1(COc2ccc3cccnc3c2)O[C@@H](n2ccc3c(N)ncnc32)[C@H](O)[C@@H]1O [Example 98, (2R,3S,4R,5R)-5-(4-amino-7H-pyrrolo[2,3-d]pyrimidin-7-yl)-2-methyl-2-((quinolin-7-yloxy)methyl)tetrahydrofuran-3,4-diol]
1.7 | 1880 | C[C@@]1(O)[C@@H](COc2ccc3cccnc3c2)O[C@@H](n2ccc3c(N)ncnc32)[C@@H]1O [Example 99, (2R,3S,4R,5R)-5-(4-amino-7H-pyrrolo[2,3-d]pyrimidin-7-yl)-3-methyl-2-((quinolin-7-yloxy)methyl)tetrahydrofuran-3,4-diol]
1.4 | – | Cc1nc(N)nc2c1ccn2[C@@H]1O[C@@H]2[C@@H](Oc3ccc4cc(Br)c(N)nc4c3)CC[C@]2(O)[C@H]1O [Example 114, (2R,3R,3aS,6S,6aR)-6-((2-amino-3-bromoquinolin-7-yl)oxy)-2-(2-amino-4-methyl-7H-pyrrolo[2,3-d]pyrimidin-7-yl)hexahydro-3aH-cyclopenta[b]furan-3,3a-diol]
1.1 | – | Cc1ncnc2c1ccn2[C@@H]1O[C@@H]2[C@@H](Oc3ccc4ccc(N)nc4c3)CC[C@]2(O)[C@H]1O [Example 113, (2R,3R,3aS,6S,6aR)-6-((2-aminoquinolin-7-yl)oxy)-2-(4-methyl-7H-pyrrolo[2,3-d]pyrimidin-7-Yl)hexahydro-2H-cyclopenta[b]furan-3,3a-diol]
0.8 | – | CNc1ncnc2c1ccn2[C@@H]1O[C@@H]2[C@@H](Oc3ccc4cc(Br)c(N)nc4c3)CC[C@]2(O)[C@H]1O [Example 94, (2R,3R,3aS,6S,6aR)-6-((2-amino-3-bromoquinolin-7-yl)oxy)-2-(4-(methylamino)-7H-pyrrolo[2,3-d]pyrimidin-7-yl)hexahydro-3aH-cyclopenta[b]furan-3,3a-diol]
0.6 | 32 | C[C@]1(COc2ccc3cc(Br)c(N)nc3c2)C[C@@H](n2ccc3c(N)ncnc32)[C@H](O)[C@@H]1O [Example 100, (1S,2R,3R,5R)-3-(((2-amino-3-bromoquinolin-7-yl)oxy)methyl)-5-(4-amino-7H-pyrrolo[2,3-d]pyrimidin-7-yl)-3-methylcyclopentane-1,2-diol]
0.6 | – | Cc1ncnc2c1ccn2[C@@H]1O[C@@H]2[C@@H](Oc3ccc4cc(Cl)c(N)nc4c3)CC[C@]2(O)[C@H]1O [Example 112, (2R,3R,3aS,6S,6aR)-6-((2-amino-3-chloroquinolin-7-yl)oxy)-2-(4-methyl-7H-pyrrolo[2,3-d]pyrimidin-7-yl)hexahydro-2H-cyclopenta[b]furan-3,3a-diol]
0.4 | – | CNc1ncnc2c1ccn2[C@@H]1C[C@@H]2[C@H](Cc3ccc4cc(Br)c(N)nc4c3)CC[C@]2(O)[C@H]1O [Example 97, (1S,2R,3aR,4S,6aR)-4-((2-amino-3-bromoquinolin-7-yl)methyl)-2-(4-(methylamino)-7H-pyrrolo[2,3-d]pyrimidin-7-yl)hexahydropentalene-1,6a(1H)-diol]
0.3 | – | C[C@]1(COc2ccc3ccc(N)nc3c2)C[C@@H](n2ccc3c(N)ncnc32)[C@H](O)[C@@H]1O [Example 101, (1S,2R,3R,5R)-5-(4-amino-7H-pyrrolo[2,3-d]pyrimidin-7-yl)-3-(((2-aminoquinolin-7-yl)oxy)methyl)-3-methylcyclopentane-1,2-diol]
0.3 | 21.9 | C[C@@]1(O)[C@@H](COc2ccc3ccc(N)nc3c2)C[C@@H](n2ccc3cncnc32)[C@@H]1O [Example 105, (1R,2S,3R,5R)-5-(((2-aminoquinolin-7-yl)oxy)methyl)-1-methyl-3-(7H-pyrrolo[2,3-d]pyrimidin-7-yl)cyclopentane-1,2-diol]

From US20230062119A1, “USE OF BIOMARKERS IN IDENTIFYING PATIENTS THAT WILL BE RESPONSIVE TO TREATMENT WITH A PRMT5 INHIBITOR” (Merck Sharp & Dohme LLC, priority 2019, published 2023)
